According to PubChem BioAssay AID463074 (Broad Institute, 2010):
Activity calls are given as the source filed them.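 The calls were made as follows: active = AC50 no more than tenfold above the top dose tested, or full inhibition at every dose with a flat fit (cut at about 19 µM in these data); inconclusive = flat curve fit with inhibition between 30% and 70%, or poor fit; inactive = AC50 more than tenfold above the top dose tested.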

Test system: HMLE_sh_eGFP viability, CellTiter-Glo luminescence, 72 h
Assay: cytotoxicity in HMLE control line with eGFP shRNA, dose response, counter-screen for HMLE_sh_ECad selective toxicity project, cell-based, HMLE_sh_eGFP, luminescence (AID 463074);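 also: counterscreen control line to flag general toxicity for the HMLE_sh_ECad screen; potency for loss of viability as luminescence drops below DMSO wells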

For `C[C@@H]1O[C@@H](O[C@@H]2C=C3CCC4C(CC[C@]5(C)[C@@H](c6ccc(=O)oc6)CC[C@]45O)[C@@]3(C)CC2)[C@H](O)[C@H](O)[C@H]1O` (stereo partly specified), the AC50 was < 0.16 µM.

With `COc1cccc(-c2ccc(C#N)c(OC(=O)c3c(Cl)cccc3Cl)n2)c1` the AC50 was 4.45 µM.

`CC1CCCN(CCCOc2ccc(Br)cc2Cl)C1` (stereo unspecified) showed an AC50 of 8.36 µM.

`Cc1cc(C)c(O)c(-c2n[nH]c3c2C(c2cccc(O)c2)N(Cc2ccco2)C3=O)c1` (stereo unspecified) was tested, and the AC50 was 6.73 µM.

`CCCOC(=O)c1ccc(Oc2c(-c3ccc(OCC)cc3O)n[nH]c2C)cc1` was tested, and the AC50 was 4.06 µM.

`CCCSc1nsc(NC(=O)C(c2ccccc2)c2ccccc2)n1` gave an AC50 of 3.64 µM.

In the case of `Cc1ccc(CNc2cnn(C34CC5CC(CC(C5)C3)C4)c(=O)c2Cl)cc1`, the AC50 is reported as 2.44 µM.

Work on `c1ccc2c(-c3ccc(OCCN4CCCCC4)cc3)c(-c3ccsc3)sc2c1` yielded an AC50 of 2.72 µM.

Work on `CCOC(=O)c1ccc(NC(=O)c2nc[nH]c2C(=O)NCCNC(=O)c2[nH]cnc2C(=O)Nc2ccc(C(=O)OCC)cc2)cc1` yielded an AC50 of 0.624 µM.

`CCCCCCOc1ccc(/C(C)=N/NC2=NCCN2)cc1[N+](=O)[O-]` was tested, and the AC50 was 3.69 µM.

In the case of `CCc1ccc(S(=O)(=O)Nc2ccc(O)c3ccccc23)cc1`, the AC50 is reported as 14.7 µM.

With `COc1ccc(-c2cc(C(F)(F)F)nc(S(C)(=O)=O)n2)cc1` the AC50 was 3.56 µM.

For `CC1=C(C(=O)OC2CCCC2)C(c2coc3ccccc3c2=O)C2=C(CC(C)(C)CC2=O)N1` (stereo unspecified), the AC50 was > 19.5 µM (inactive).

`OC(CNCC(c1ccc(Cl)cc1Cl)c1c[nH]c2ccccc12)c1ccccc1` (stereo unspecified) gave an AC50 of 2.88 µM.

For `CC(C)C[C@H](N)c1nnc(S(=O)(=O)Cc2ccc(F)cc2)o1`, the AC50 was 8.54 µM.

`C=C(C)COc1ccc(-c2nc(N)ncc2-c2ccc(Br)cc2)c(O)c1` showed an AC50 of 7.37 µM.

Molecule `OC(COc1cccc2ccccc12)CN1CCN(c2ccc(Cl)cc2)CC1` (stereo unspecified) has an AC50 of 7.09 µM.

`COc1cccc(-c2sc3ccc(OC)cc3c2C#CCCO)c1` showed an AC50 of 8.26 µM.

Molecule `COc1ccc(-c2oc3ccc(N4CCOCC4)cc3c2C#CCO)cc1` has an AC50 of 10.4 µM.

For `CC(C)N1CCN(Cc2ccc(OC3CCCC3)cc2)CC1CCO` (stereo unspecified), the AC50 was 16.7 µM.

`COc1ccc(/C=C/C(=O)c2ccncc2)c2ccccc12` was tested, and the AC50 was 10 µM.

With `COc1ccc(Br)cc1C(=O)NC(=S)Nc1cc(-c2nc3ccccc3[nH]2)ccc1C` the AC50 was > 19.5 µM (inactive).

For `COc1cc(Nc2ccc(C)cc2)c([N+](=O)[O-])nc1[N+](=O)[O-]`, the AC50 was 5.74 µM.

For `CC(C)CCn1c(N)c(C(=O)NCc2cccs2)c2nc3ccccc3nc21`, the AC50 was 7.25 µM.

For `Cc1ccccc1N=C(NOCc1ccc(Cl)cc1Cl)c1nonc1N`, the AC50 was 3.81 µM.

Molecule `COc1cccc(/C=N/NC(=O)CSc2nnc(C)n2-c2ccccc2)c1O` has an AC50 of 5.01 µM.

With `O=c1c(Cl)c(NCc2ccc(F)cc2)cnn1C12CC3CC(CC(C3)C1)C2` the AC50 was 2.15 µM.

`O=C(NC(c1ccc(Cl)cc1)c1c(O)ccc2ccccc12)c1ccccc1` (stereo unspecified) showed an AC50 of 2 µM.

Molecule `COc1ccc2c(c1)C(=O)[C@H](O)[C@@H](c1ccc(OC)c(Br)c1)O2` has an AC50 of 3.61 µM.

Molecule `Cc1c(C)n(CCc2ccccc2)c2ncnc(NCCCN(C)C)c12` has an AC50 of 5.52 µM.

With `CCc1ccc(Nc2nc(N)nc(CSc3nc4ccccc4s3)n2)cc1` the AC50 was > 19.5 µM (inactive).

Molecule `O=[N+]([O-])/C=C/c1cn(Cc2ccc(F)cc2)c2ccccc12` has an AC50 of 6.86 µM.

With `CN(CC(=O)Nc1ccc(Cl)c(Cl)c1)CC(=O)Nc1ccc2c(c1)OCO2` the AC50 was 17.2 µM.

`O=C(NCCc1c[nH]c2ccccc12)C(=O)c1c[nH]c2ccccc12` gave an AC50 of 6.75 µM.

Work on `CCOC(=O)/C=C/C(=O)Nc1cccc([N+](=O)[O-])c1` yielded an AC50 of 8.97 µM.

Molecule `COC(=O)C(Cc1ccc(N(CCCl)CCCl)cc1)N=Cc1ccccc1O` (stereo unspecified) has an AC50 of 2.54 µM.

Work on `O=C1c2cc(Br)ccc2N(Cc2ccc(Br)cc2)S(=O)(=O)C1c1cc(Cl)c(Cl)cc1[N+](=O)[O-]` (stereo unspecified) yielded an AC50 of 3.07 µM.

Molecule `CCOc1ccc2nc(NC3=NC(c4ccc(OC)cc4)CC(=O)N3)nc(C)c2c1` (stereo unspecified) has an AC50 of 7.28 µM.

Molecule `CN1CC(c2ccccc2)C2(SC(=S)N(Cc3ccco3)C2=O)C12C(=O)Nc1ccccc12` (stereo unspecified) has an AC50 of 7.31 µM.

Molecule `O=C1[C@@H]2Cc3c([nH]c4ccccc34)C(c3cccc(Br)c3)N2C(=O)CN1C1CCN(Cc2ccccc2)CC1` (stereo partly specified) has an AC50 of 7.12 µM.

In the case of `Clc1ccc(Cl)c(OCCCCN2CCNCC2)c1`, the AC50 is reported as 9.58 µM.
